Where two headings read alike, the source gives them in different places. Values belong to the compound of their own block, whether it stands above or below them.
How the values were obtained:
[1] = molecular target: cortisol synthase (CYP11B1) (Macaca fascicularis, UniProt A0A2K5ULY1); experiment: Inhibition of cortisol synthesis, cynomolgus adrenal mitochondria, 11-deoxycortisol as substrate; format: biochemical, cynomolgus monkey; details: 150 units of CYP11B1, 11-deoxycortisol as substrate
Protocol: The aldosterone synthase and cortisol synthase inhibition assays employ cynomolgus adrenal gland mitochondria as the source of aldosterone synthase (CYP11B2) and cortisol synthase (CYP11B1). Mitochondria are prepared from frozen cynomolgus monkey adrenal glands according to Method A described in by J. D. McGarry et al. (Biochem. J., 1983, 214, 21-28), with a final resuspension in the AT buffer described in R. Yamaguchi et al. (Cell Death and Differentiation, 2007, 14, 616-624), frozen as aliquots in liquid nitrogen and stored at −80° C. until use. One unit of CYP11B2 and CYP11B1 activity in these preparations is defined as the amount of enzyme that generates 1 pmol of product in one hour under the conditions described.
Assays are performed as for aldosterone synthase except for the use of 150 units of CYP11B1, 11-deoxycortisol as substrate and cortisol measured as product.

[2] = molecular target: T1, aldosterone synthase (CYP11B2) (Macaca fascicularis, UniProt A0A2K5UPL9); experiment: Inhibition of aldosterone synthase, cynomolgus adrenal mitochondria, aldosterone quantified by mass spectrometry; format: biochemical, cynomolgus monkey; details: 2 μM corticosterone, 90 minutes at 37° C.
T1 construct: employ cynomolgus adrenal gland mitochondria as the source of aldosterone synthase (CYP11B2); from tissue; host or cells: cynomolgus monkey adrenal gland mitochondria
T1 sequence (A0A2K5UPL9 1-503): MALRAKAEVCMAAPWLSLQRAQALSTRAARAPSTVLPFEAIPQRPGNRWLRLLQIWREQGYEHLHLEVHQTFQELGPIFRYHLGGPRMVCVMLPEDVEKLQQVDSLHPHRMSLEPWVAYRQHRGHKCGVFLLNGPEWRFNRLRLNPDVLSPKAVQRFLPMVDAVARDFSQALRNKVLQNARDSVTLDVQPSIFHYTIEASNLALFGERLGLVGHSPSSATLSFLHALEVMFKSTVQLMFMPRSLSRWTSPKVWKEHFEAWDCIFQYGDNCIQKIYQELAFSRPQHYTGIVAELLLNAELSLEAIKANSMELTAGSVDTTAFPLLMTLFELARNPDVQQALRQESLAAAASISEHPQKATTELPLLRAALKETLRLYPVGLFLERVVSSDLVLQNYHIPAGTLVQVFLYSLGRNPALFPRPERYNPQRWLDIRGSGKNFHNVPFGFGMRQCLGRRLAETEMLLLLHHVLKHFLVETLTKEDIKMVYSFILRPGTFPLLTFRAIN
Protocol: The aldosterone synthase and cortisol synthase inhibition assays employ cynomolgus adrenal gland mitochondria as the source of aldosterone synthase (CYP11B2) and cortisol synthase (CYP11B1). […] One unit of CYP11B2 and CYP11B1 activity in these preparations is defined as the amount of enzyme that generates 1 pmol of product in one hour under the conditions described.
The compounds of the invention may be evaluated for aldosterone synthase inhibition by the following assay:
Assays are performed in 96-well format in a final volume of 60 microL/well, containing 100 mM potassium phosphate, pH 7.4, 1% (v/v) DMSO, and additionally, 2 μM of corticosterone and 50 units of CYP11B2 activity. Reactions are started by the addition of NADPH to 1 mM and allowed to proceed for 90 minutes at 37° C. Reactions are terminated by the addition of 60 μL of MeCN containing an internal standard for mass spectrometry. One hundred microliters are then transferred to a glass filter plate and centrifuged at 570×g for 5 minutes and the filtrate is collected. Reaction product aldosterone is quantified by mass spectrometry. To determine the assay blank value (0% activity), NADPH is omitted from some reactions.
(§1) Dose dependent inhibition is quantified by the inclusion of compound at various concentrations. Maximum activity (100%) is defined by reactions containing NADPH, but without compound.

rhCYP17A1 = molecular target: T2, rhCYP17A1 (Homo sapiens, UniProt P05093); experiment: Inhibition of CYP17A1, progesterone to 17-α-hydroxyprogesterone, mass spectrometry; format: biochemical; details: rhCYP17A1, 150 nM progesterone, 15 minutes at 37° C.; read-out: CYP17A1 IC50
T2 construct: purchased Cypex
T2 sequence (P05093 1-508): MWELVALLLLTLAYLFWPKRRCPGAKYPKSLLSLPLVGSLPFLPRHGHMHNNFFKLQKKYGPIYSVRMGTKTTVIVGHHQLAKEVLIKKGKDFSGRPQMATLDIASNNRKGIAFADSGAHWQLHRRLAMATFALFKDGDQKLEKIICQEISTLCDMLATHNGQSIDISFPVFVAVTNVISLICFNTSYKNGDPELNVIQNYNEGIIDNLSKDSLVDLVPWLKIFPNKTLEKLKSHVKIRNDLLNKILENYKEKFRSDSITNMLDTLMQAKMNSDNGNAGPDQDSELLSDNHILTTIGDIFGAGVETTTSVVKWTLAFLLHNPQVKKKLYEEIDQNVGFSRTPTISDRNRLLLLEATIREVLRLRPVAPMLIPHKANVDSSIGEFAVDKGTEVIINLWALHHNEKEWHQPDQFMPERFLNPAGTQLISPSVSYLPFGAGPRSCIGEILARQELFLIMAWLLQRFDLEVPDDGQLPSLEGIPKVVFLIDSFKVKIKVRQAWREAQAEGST
Protocol: Compounds of the invention may also be evaluated for inhibition of CYP17A1 via the following assay:
Reactions are started by the addition of NADPH to 1 mM and allowed to proceed for 15 minutes at 37° C. Reactions are terminated by the addition of 40 μL of MeCN containing an internal standard for mass spectrometry. The plates are centrifuged at 3000 rpm for 5 min and the reaction product 17-α-hydroxyprogesterone is quantified by mass spectrometry. To determine the assay blank value (0% activity), NADPH is omitted from some reactions.
as §1

CYP19A1 = molecular target: T3, CYP19A1 (Homo sapiens, UniProt P11511); experiment: Inhibition of CYP19A1 (Kragie et al.); format: biochemical; details: read-out: CYP19A1 IC50
T3 sequence (P11511 1-503): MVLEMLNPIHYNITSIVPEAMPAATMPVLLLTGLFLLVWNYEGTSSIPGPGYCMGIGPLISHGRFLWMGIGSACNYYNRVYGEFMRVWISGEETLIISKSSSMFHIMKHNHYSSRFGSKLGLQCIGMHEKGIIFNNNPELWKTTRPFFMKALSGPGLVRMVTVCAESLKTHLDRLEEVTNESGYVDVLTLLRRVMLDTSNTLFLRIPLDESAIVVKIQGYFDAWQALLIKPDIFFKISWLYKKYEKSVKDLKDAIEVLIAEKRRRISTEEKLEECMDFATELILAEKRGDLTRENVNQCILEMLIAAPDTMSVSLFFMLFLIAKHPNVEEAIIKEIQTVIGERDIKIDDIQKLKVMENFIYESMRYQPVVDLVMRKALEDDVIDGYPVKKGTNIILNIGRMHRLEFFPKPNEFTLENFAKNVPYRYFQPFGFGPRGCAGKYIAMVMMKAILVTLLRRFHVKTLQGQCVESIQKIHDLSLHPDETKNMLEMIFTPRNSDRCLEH

[3] = cynomolgus adrenal mitochondria, read-out: Cortisol Inhibition IC50
[4] = Cortisol Inhibition IC50, cynomolgus adrenal mitochondria

SMILES: CN1C(=O)CCc2cc(-n3cnc4c3C(=O)OC(C)(C)C4)ccc21 [Compound 5, 6-{6,6-dimethyl-4-oxo-3H,4H,6H,7H-pyrano[3,4-d]imidazol-3-yl}-1-methyl-1,2,3,4-tetrahydroquinolin-2-one]
IC50 [1, 3]: 40 µM | IC50 [2]: 110 nM | IC50 (rhCYP17A1): > 20 µM | IC50 (CYP19A1): > 20 µM

SMILES: CC1(C)Cc2ncn(-c3ccc(C#N)c(Cl)c3)c2C(=O)O1 [Compound 6, 2-chloro-4-{6,6-dimethyl-4-oxo-3H,4H,6H,7H-pyrano[3,4-d]imidazol-3-yl}benzonitrile]
IC50 [1, 4]: 2.5 µM | IC50 [2]: 5.3 nM | IC50 (rhCYP17A1): > 20 µM | IC50 (CYP19A1): > 20 µM

SMILES: CC1(C)Cc2ncn(-c3ccc(Cl)cc3)c2C(=O)O1 [Compound 9, 3-(4-chlorophenyl)-6,6-dimethyl-3H,4H,6H,7H-pyrano[3,4-d]imidazol-4-one]
IC50 [1, 3]: 2.4 µM | IC50 [2]: 32 nM | IC50 (rhCYP17A1): > 20 µM | IC50 (CYP19A1): > 20 µM

SMILES: CC1(C)Cc2ncn(-c3ccc(C#N)c(F)c3)c2C(=O)O1 [Compound 10, 4-{6,6-dimethyl-4-oxo-3H,4H,6H,7H-pyrano[3,4-d]imidazol-3-yl}-2-fluorobenzonitrile]
IC50 [1, 4]: 4.2 µM | IC50 [2]: 43 nM | IC50 (rhCYP17A1): > 20 µM | IC50 (CYP19A1): > 20 µM

SMILES: Cc1cc(C#N)ccc1-n1cnc2c1C(=O)OC(C)(C)C2 [Compound 13, 4-{6,6-dimethyl-4-oxo-3H,4H,6H,7H-pyrano[3,4-d]imidazol-3-yl}-3-methylbenzonitrile]
IC50 [1, 4]: 2.2 µM | IC50 [2]: 6.3 nM | IC50 (rhCYP17A1): > 20 µM | IC50 (CYP19A1): > 20 µM

SMILES: CC1(C)Cc2ncn([C@H]3CC[C@H](C#N)CC3)c2C(=O)O1 [Compound 28, trans-4-(6,6-Dimethyl-4-oxo-6,7-dihydro-4H-pyrano[3,4-d]imidazol-3-yl)-cyclohexanecarbonitrile]
IC50 [1, 3]: 16 µM | IC50 [2]: 75 nM | IC50 (rhCYP17A1): > 20 µM | IC50 (CYP19A1): > 20 µM

SMILES: CC1(C=O)Cc2ncn(-c3ccc(C#N)c(Cl)c3)c2C(=O)O1 (centres unmarked) [Compound 43, 2-Chloro-4-(6-formyl-6-methyl-4-oxo-6,7-dihydro-4H-pyrano[3,4-d]imidazol-3-yl)-benzonitrile]
IC50 [1, 4]: > 30 µM | IC50 [2]: 540 nM | IC50 (rhCYP17A1): > 20 µM | IC50 (CYP19A1): > 20 µM

SMILES: CC1(C(=O)O)Cc2ncn(-c3ccc(C#N)c(Cl)c3)c2C(=O)O1 (centres unmarked) [Compound 44, 3-(3-Chloro-4-cyano-phenyl)-6-methyl-4-oxo-3,4,6,7-tetrahydro-pyrano[3,4-d]imidazole-6-carboxylic acid]
IC50 [1, 4]: > 30 µM | IC50 [2]: 670 nM | IC50 (rhCYP17A1): > 20 µM | IC50 (CYP19A1): > 20 µM

Further lines, results first:

IC50 [1, 3]: 3.4 µM | IC50 [2]: 91 nM | IC50 (rhCYP17A1): > 20 µM | IC50 (CYP19A1): > 20 µM
SMILES: CC1(C)Cc2ncn(-c3ccc(F)c(F)c3)c2C(=O)O1 [Compound 2, 3-(3,4-difluorophenyl)-6,6-dimethyl-3H,4H,6H,7H-pyrano[3,4-d]imidazol-4-one]

IC50 [1, 3]: 8.7 µM | IC50 [2]: 35 nM | IC50 (rhCYP17A1): > 20 µM | IC50 (CYP19A1): > 20 µM
SMILES: CC1(C)Cc2ncn(-c3ccc(C#N)cc3)c2C(=O)O1 [Compound 3, 4-{6,6-dimethyl-4-oxo-3H,4H,6H,7H-pyrano[3,4-d]imidazol-3-yl}benzonitrile]

IC50 [1, 3]: 5.3 µM | IC50 [2]: 35 nM | IC50 (rhCYP17A1): > 20 µM | IC50 (CYP19A1): > 20 µM
SMILES: CC1(C)Cc2ncn(-c3cccc(Cl)c3F)c2C(=O)O1 [Compound 8, 3-(3-chloro-2-fluorophenyl)-6,6-dimethyl-3H,4H,6H,7H-pyrano[3,4-d]imidazol-4-one]

IC50 [1, 3]: 0.59 µM | IC50 [2]: 4.9 nM | IC50 (rhCYP17A1): > 20 µM | IC50 (CYP19A1): > 20 µM
SMILES: Cc1cc(-n2cnc3c2C(=O)OC(C)(C)C3)ccc1C#N [Compound 11, 4-{6,6-dimethyl-4-oxo-3H,4H,6H,7H-pyrano[3,4-d]imidazol-3-yl}-2-methylbenzonitrile]

IC50 [1, 3]: 4.1 µM | IC50 [2]: 17 nM | IC50 (rhCYP17A1): > 20 µM | IC50 (CYP19A1): > 20 µM
SMILES: CC1(C)Cc2ncn(-c3ccc(C#N)cc3Cl)c2C(=O)O1 [Compound 18, 3-chloro-4-{6,6-dimethyl-4-oxo-3H,4H,6H,7H-pyrano[3,4-d]imidazol-3-yl}benzonitrile]

IC50 [1, 3]: 7.1 µM | IC50 [2]: 46 nM | IC50 (rhCYP17A1): > 20 µM | IC50 (CYP19A1): > 20 µM
SMILES: CC1(C)Cc2ncn(-c3ccc(C#N)cc3F)c2C(=O)O1 [Compound 19, 4-{6,6-dimethyl-4-oxo-3H,4H,6H,7H-pyrano[3,4-d]imidazol-3-yl}-3-fluorobenzonitrile]

Source: patent US9334285B2, “Aldosterone synthase inhibitors” (Boehringer Ingelheim International GmbH, priority 2014, dated 2016)
